Results published in article PMC10967972, “Different Coactivator Recruitment to Human PPARα/δ/γ Ligand-Binding Domains by Eight PPAR Agonists to Treat Nonalcoholic Fatty Liver Disease” (Biomedicines, 2024).
Read-outs that look alike come from different tables or passages of the source.

How the values were obtained:
Format in all cases: biochemical
human PPARα-LBD = target: T1, human PPARα-LBD (Homo sapiens, UniProt Q07869); assay: TR-FRET coactivator recruitment assay, PPARα-LBD; set-up: extent of recruitment of all four coactivators to PPARα-LBD: reference not given here; settings: for Approximate potency order in the recruitment of four coactivators, PPARα: evaluated based on EC50 values, PGC, PGC1α, SRC, SRC1, TRAP, TRAP220; for EC50: Buffer A
T1 construct: Human PPARα-LBD [amino acids (AAs) 200–468]; made in house
T1 sequence (Q07869 200-468): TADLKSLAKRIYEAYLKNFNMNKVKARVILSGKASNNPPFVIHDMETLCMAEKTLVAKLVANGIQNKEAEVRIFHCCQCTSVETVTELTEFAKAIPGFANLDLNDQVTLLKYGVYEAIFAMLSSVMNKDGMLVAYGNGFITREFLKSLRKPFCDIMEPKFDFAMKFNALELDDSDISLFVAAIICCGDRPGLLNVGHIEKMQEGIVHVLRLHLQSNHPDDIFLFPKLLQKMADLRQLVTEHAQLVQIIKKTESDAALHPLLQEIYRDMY

human PPARδ-LBD = target: T2, human PPARδ-LBD (Homo sapiens, UniProt Q03181); assay: TR-FRET coactivator recruitment assay, PPARδ-LBD
T2 construct: PPARδ-LBD (AAs 170–441); made in house
T2 sequence (Q03181 170-441): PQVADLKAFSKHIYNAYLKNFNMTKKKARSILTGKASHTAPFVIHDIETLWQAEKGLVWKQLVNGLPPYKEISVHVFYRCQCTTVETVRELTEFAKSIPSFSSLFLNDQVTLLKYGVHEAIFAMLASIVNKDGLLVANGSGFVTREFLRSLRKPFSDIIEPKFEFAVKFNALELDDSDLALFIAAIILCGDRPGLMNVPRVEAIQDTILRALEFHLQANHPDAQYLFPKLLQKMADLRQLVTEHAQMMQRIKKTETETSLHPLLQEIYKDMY

human PPARγ-LBD = target: T3, human PPARγ-LBD (Homo sapiens, UniProt P37231); assay: TR-FRET coactivator recruitment assay, PPARγ-LBD
T3 construct: PPARγ-LBD (AAs 203–477 in isoform 1); made in house
T3 sequence (P37231 203-477 isoform P37231-2): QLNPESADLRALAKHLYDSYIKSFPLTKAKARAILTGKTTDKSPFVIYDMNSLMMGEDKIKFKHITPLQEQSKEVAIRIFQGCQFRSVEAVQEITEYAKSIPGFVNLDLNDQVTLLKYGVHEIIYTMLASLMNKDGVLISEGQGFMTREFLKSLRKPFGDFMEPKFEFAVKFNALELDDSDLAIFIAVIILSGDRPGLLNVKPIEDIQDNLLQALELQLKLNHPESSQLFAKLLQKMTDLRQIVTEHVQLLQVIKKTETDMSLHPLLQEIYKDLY

[1] = read-out: PPARα CBP % of GW7647 max response
[2] = read-out: PPARα PGC1α % of GW7647 max response
[3] = read-out: PPARα SRC1 % of GW7647 max response
[4] = read-out: PPARα TRAP220 % of GW7647 max response
[5] = read-out: PPARδ CBP % of GW501516 max response
[6] = read-out: PPARδ PGC1α % of GW501516 max response
[7] = read-out: PPARδ SRC1 % of GW501516 max response
[8] = read-out: PPARδ TRAP220 % of GW501516 max response
[9] = read-out: PPARγ CBP % of GW1929 max response
[10] = read-out: PPARγ PGC1α % of GW1929 max response
[11] = read-out: PPARγ SRC1 % of GW1929 max response
[12] = read-out: PPARγ TRAP220 % of GW1929 max response
[13] = CBP peptide recruitment, read-out: PPARα CBP EC50
[14] = PGC1α peptide recruitment, read-out: PPARα PGC1α EC50
[15] = SRC1 peptide recruitment, read-out: PPARα SRC1 EC50
[16] = TRAP220 peptide recruitment, read-out: PPARα TRAP220 EC50
[17] = CBP peptide recruitment, Buffer A, read-out: PPARδ CBP EC50
[18] = PGC1α peptide recruitment, Buffer A, read-out: PPARδ PGC1α EC50
[19] = SRC1 peptide recruitment, Buffer A, read-out: PPARδ SRC1 EC50
[20] = TRAP220 peptide recruitment, Buffer A, read-out: PPARδ TRAP220 EC50
[21] = evaluated based on EC50 values, PGC, PGC1α, SRC, SRC1, TRAP, TRAP220
[22] = CBP peptide recruitment, Buffer A, read-out: PPARγ CBP EC50
[23] = PGC1α peptide recruitment, Buffer A, read-out: PPARγ PGC1α EC50
[24] = SRC1 peptide recruitment, Buffer A, read-out: PPARγ SRC1 EC50
[25] = TRAP220 peptide recruitment, Buffer A, read-out: PPARγ TRAP220 EC50

Row | Structure (SMILES) | Approximate potency order in the recruitment of four coactivators, PPARα (human PPARα-LBD) | Emax (human PPARα-LBD; [1]) | Emax (human PPARα-LBD; [2]) | Emax (human PPARα-LBD; [3]) | Emax (human PPARα-LBD; [4]) | Emax (human PPARδ-LBD; [5]) | Emax (human PPARδ-LBD; [6]) | Emax (human PPARδ-LBD; [7]) | Emax (human PPARδ-LBD; [8]) | Emax (human PPARγ-LBD; [9]) | Emax (human PPARγ-LBD; [10]) | Emax (human PPARγ-LBD; [11]) | Emax (human PPARγ-LBD; [12]) | EC50 (human PPARα-LBD; [13]) | EC50 (human PPARδ-LBD; [17]) | EC50 (human PPARδ-LBD; [18]) | EC50 (human PPARδ-LBD; [19]) | EC50 (human PPARδ-LBD; [20]) | Approximate potency order in the recruitment of four coactivators, PPARδ (human PPARδ-LBD; [21]) | Approximate potency order in the recruitment of four coactivators, PPARγ (human PPARγ-LBD; [21]) | other results
1 | CC(C)(Oc1ccc(CCNC(=O)c2ccc(Cl)cc2)cc1)C(=O)O [Bezafibrate, bezafibrate] | CBP>PGC=TRAP>SRC | 79.2% | 74.5% | 72.4% | 76.4% | 64.6% | 90.3% | 50% | 85.8% | 68.7% | 68.6% | 34% | 55.7% | – | – | – | – | – | – | – | extent of recruitment of all four coactivators to PPARα-LBD (human PPARα-LBD): 72.4–79.2%; recruitment of coactivators to PPARα-LBD (in words) (human PPARα-LBD; four coactivator peptides): recruited all four coactivators; Approximate potency order in the recruitment of four coactivators, PPARδ (human PPARδ-LBD): TRAP>PGC>CBP>SRC; recruitment of coactivators to PPARδ-LBD (in words) (human PPARδ-LBD): recruited all four coactivators; EC50 (human PPARδ-LBD; PPARδ CBP EC50): 58.5 µM; EC50 (human PPARδ-LBD; PPARδ TRAP220 EC50): 24.5 µM; EC50 (human PPARδ-LBD; read-out: PPARδ PGC1α EC50): 35.8 µM; EC50 (human PPARδ-LBD; read-out: PPARδ SRC1 EC50): 101 µM; Approximate potency order in the recruitment of four coactivators, PPARγ (human PPARγ-LBD): PGC=CBP=TRAP>SRC; recruitment of coactivators to PPARγ-LBD (in words) (human PPARγ-LBD): recruited all four coactivators; EC50 (human PPARγ-LBD; PPARγ CBP EC50): 36.3 µM; EC50 (human PPARγ-LBD; PPARγ PGC1α EC50): 41.8 µM; EC50 (human PPARγ-LBD; PPARγ SRC1 EC50): 108 µM; EC50 (human PPARγ-LBD; PPARγ TRAP220 EC50): 24.5 µM
2 | CCO[C@@H](Cc1ccc(OCCn2c(C)ccc2-c2ccc(SC)cc2)cc1)C(=O)O [Saroglitazar, saroglitazar] | CBP>TRAP>PGC=SRC | 80.2% | 58.3% | 54.2% | 64.2% | 6.72% | 8.94% | – | 2.5% | 85% | 50.1% | 40% | 52.4% | 0.28 µM | > 100 µM | 3.91 µM | > 100 µM | > 100 µM | Faint activation | CBP>PGC>TRAP=SRC | EC50 (human PPARα-LBD; [14]): 0.761 µM; EC50 (human PPARα-LBD; [15]): 0.814 µM; EC50 (human PPARα-LBD; [16]): 0.674 µM; EC50 (human PPARγ-LBD; [22]): 1.87 µM; EC50 (human PPARγ-LBD; [23]): 2.46 µM; EC50 (human PPARγ-LBD; [24]): 5.55 µM; EC50 (human PPARγ-LBD; [25]): 8.43 µM
3 | CCO[C@H](COc1ccc(C(F)(F)F)cc1)CSc1ccc(OCC(=O)O)c(C)c1 [Seladelpar, seladelpar] | CBP>PGC>SRC=TRAP | 49.2% | 34.3% | 15.5% | 11% | 120% | 113% | 146% | 136% | 45.9% | 49.8% | 11.9% | 20.5% | 1.19 µM | 0.0468 µM | 0.0317 µM | 0.0748 µM | 0.0607 µM | PGC>CBP>SRC=TRAP | PGC=CBP>TRAP>SRC | EC50 (human PPARα-LBD; [14]): 2.05 µM; EC50 (human PPARα-LBD; [15]): 1.92 µM; EC50 (human PPARα-LBD; [16]): 1.84 µM; recruitment of coactivators to PPARδ-LBD (in words) (human PPARδ-LBD; four coactivator peptides): effective; EC50 (human PPARδ-LBD; range over PGC1α, CBP, SRC1, TRAP220, Buffer A, read-out: EC50 values on the four coactivators, PPARδ): 0.0317 to 0.0748 µM; extent of recruitment of four coactivators to PPARδ-LBD (human PPARδ-LBD; range over four coactivators, 100% = 0.1 µM GW501516): 113–146%; EC50 (human PPARγ-LBD; [22]): 10.7 µM; EC50 (human PPARγ-LBD; [23]): 4.98 µM; EC50 (human PPARγ-LBD; [24]): 22.4 µM; EC50 (human PPARγ-LBD; [25]): 13.6 µM
4 | CC[C@@H](Oc1cccc(CN(CCCOc2ccc(OC)cc2)c2nc3ccccc3o2)c1)C(=O)O [Pemafibrate, pemafibrate] | CBP>PGC=SRC>TRAP | 96.7% | 74.5% | 101% | 102% | 74.6% | 91.1% | 58.6% | 77.3% | 80.3% | 50.8% | 27.7% | 82.5% | – | 8.64 µM | 4.75 µM | 14.9 µM | 7.48 µM | PGC>CBP=TRAP>SRC | CBP=TRAP>PGC>SRC | recruitment of coactivators to PPARδ-LBD (in words) (human PPARδ-LBD; four coactivator peptides): effective; EC50 (human PPARγ-LBD; [22]): 5.58 µM; EC50 (human PPARγ-LBD; [23]): 8.02 µM; EC50 (human PPARγ-LBD; [24]): 13.8 µM; EC50 (human PPARγ-LBD; [25]): 5.59 µM
5 | CC(C)(Oc1ccc(C(=O)c2ccc(Cl)cc2)cc1)C(=O)O [Fenofibric acid, fenofibric acid] | CBP>TRAP>PGC>SRC | 80.8% | 36.8% | 78.3% | 86% | 0.45% | 0.16% | 0.6% | 2.76% | 73% | 82.5% | 42% | 64.8% | 3.41 µM | > 500 µM | > 500 µM | > 500 µM | > 500 µM | No activation | PGC=CBP=TRAP>SRC | EC50 (human PPARα-LBD; [14]): 8.02 µM; EC50 (human PPARα-LBD; [15]): 11.1 µM; EC50 (human PPARα-LBD; [16]): 7.33 µM
